Read-outs that look alike come from different tables or passages of the source. Positions of bridges follow the written chain, without caps; N, C: chain ends. Non-standard residues stand in square brackets, D forms with d. Residues, ends and D or L forms follow the SMILES beside them. *: point of attachment. FITC = O=C1OC2(c3ccc(O)cc3Oc3cc(O)ccc32)c2ccc(NC(=S)*)cc21; Tyr(3-I) = N[C@@H](Cc1ccc(O)c(I)c1)C(=O)O; Hyp = O=C(O)[C@@H]1C[C@@H](O)CN1; Ahx = NCCCCCC(=O)O
How the values were obtained:
[1] = Stability in rat liver homogenate; assay type: in vitro ADME; conditions: 37° C., LC-MS; for half-life: tissue homogenate
Method: Stability was assayed using rat liver homogenate, which contains both intra- and extracellular enzymes and represents a particularly harsh chemical environment for peptide bonds. Freshly prepared rat liver homogenate (630 μL) was placed in a glass test tube and incubated at 37° C. in a water bath for 4 minutes. To the rat liver homogenate at 37° C. was added 70 μL of a 1 mM solution of test compound. At time points 0, 5, 15, 30, and 60 minutes, a 100 μL aliquot of the reaction mixture was removed and mixed with 100 μL of methanol in a microfuge tube to quench the reaction. The quenched reaction mixture was centrifuged for 3 minutes at 10,000 rpm to pellet the precipitated protein. The supernatant was analyzed by LC-MS to quantitate the amount of test compound remaining by comparing the area of the single ion MS peak to that of a series of standards. Half life (T1/2) was determined by plotting log percent signal remaining vs. time. The data were fit using an exponential curve fit, wherein T1/2=In2/slope.

fibrin DD(E) fragment = fibrin DD(E) fragment (Homo sapiens, UniProt P02671+P02675+P02679); assay: Fibrin DD(E) fragment affinity of optical contrast agents; assay type: binding
Method: NovaSyn TGR resin (0.20 mmol/g, 100 mg, 20 μmol) was washed with NMP/ether/NMP. The peptide was assembled by the standard solid phase method using the PyBOP/HOBt/DIEA activation. After the coupling of the final amino acid residue, the resin bound peptide was treated with a solution of piperidine in DMF (20% by volume, 2.0 mL) for 10 minutes to remove the Fmoc protecting group. The resin was washed thoroughly with NMP/ether/NMP, and was treated with a solution of fluorascein-5-isothiocyanate (23.4 mg, 60 μmol) and duisopropylethylamine (11.6 mg, 15.7 μL, 90 μmol) in DMF (1.5 mL) for 12 hours. The resin was washed thoroughly (NMP/ether/NMP), and treated with a solution of Tl (TFA)3 (18.7 mg, 34.5 μmol) in DMF (1.5 mL) at 4° C. for three hours. The resin was washed after this treatment, and treated with a cocktail of TFA/TIS/water (95/2.5/2.5, 2.0 mL) for two hours. The crude peptide was precipitated by adding ether to the cleavage cocktail, and purified by preparative HPLC using a Vydac C-18 column. Structures A-N were formed in this manner and their fibrin DD(E) fragment affinities were determined (Table 5).
N-terminal labeling of the peptides with optical probes can modulate the binding affinity of the optical contrast agents. For example, when comparing fluorescein, 4-methoxycoumarin and tetramethylrhodamine derivatives of the peptide (QWECPYGLCWIQ (SEQ ID NO:27); Kd=3 μM) the following Kd's were observed (Table 6): […]

[2] = fluorescein-labeled peptides, read-out: Kd (μM) Vs. DD(E)

Chain of fibrin DD(E) fragment (P02671 124-216): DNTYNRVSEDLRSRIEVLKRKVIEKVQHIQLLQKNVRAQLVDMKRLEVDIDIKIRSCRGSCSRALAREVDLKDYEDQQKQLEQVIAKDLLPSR
Chain of fibrin DD(E) fragment (P02675 164-491): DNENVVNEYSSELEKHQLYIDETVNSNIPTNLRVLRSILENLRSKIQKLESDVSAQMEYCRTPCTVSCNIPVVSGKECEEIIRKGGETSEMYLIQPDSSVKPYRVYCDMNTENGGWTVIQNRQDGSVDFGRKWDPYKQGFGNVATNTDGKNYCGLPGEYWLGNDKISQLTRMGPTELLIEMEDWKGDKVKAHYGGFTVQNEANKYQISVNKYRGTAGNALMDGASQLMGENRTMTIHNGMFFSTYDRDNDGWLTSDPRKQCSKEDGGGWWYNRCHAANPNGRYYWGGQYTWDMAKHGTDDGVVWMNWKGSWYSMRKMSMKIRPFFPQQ
Chain of fibrin DD(E) fragment (P02679 114-432): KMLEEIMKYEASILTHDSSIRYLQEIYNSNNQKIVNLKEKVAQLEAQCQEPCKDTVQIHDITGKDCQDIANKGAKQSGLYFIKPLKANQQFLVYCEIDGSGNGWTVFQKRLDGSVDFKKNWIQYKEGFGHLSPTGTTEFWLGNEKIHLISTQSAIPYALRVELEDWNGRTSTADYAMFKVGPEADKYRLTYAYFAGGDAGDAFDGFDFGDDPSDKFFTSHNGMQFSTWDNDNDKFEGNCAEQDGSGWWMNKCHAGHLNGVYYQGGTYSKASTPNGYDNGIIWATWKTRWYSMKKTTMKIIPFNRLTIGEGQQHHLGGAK
Chain of fibrin DD(E) fragment (P02671 36-97): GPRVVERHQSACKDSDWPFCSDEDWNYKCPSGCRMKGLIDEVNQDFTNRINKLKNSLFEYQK
Chain of fibrin DD(E) fragment (P02675 45-152): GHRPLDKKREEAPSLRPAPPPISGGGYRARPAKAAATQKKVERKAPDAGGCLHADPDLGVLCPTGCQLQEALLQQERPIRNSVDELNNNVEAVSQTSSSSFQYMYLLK
Chain of fibrin DD(E) fragment (P02679 27-88): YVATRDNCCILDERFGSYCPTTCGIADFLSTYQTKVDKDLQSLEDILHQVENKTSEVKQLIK

For `CC(C)C[C@H](NC(=O)[C@@H]1CSSC[C@H](NC(=O)[C@@H]2CCCN2C(=O)[C@H](CC(C)C)NC(=O)C(CNC(=O)C(CN(CCN(CC(=O)O)CC(=O)O)CC(=O)O)N(CC(=O)O)CC(=O)O)NC(=O)C(CN(CCN(CC(=O)O)CC(=O)O)CC(=O)O)N(CC(=O)O)CC(=O)O)C(=O)N[C@@H](CC(=O)O)C(=O)N[C@@H](Cc2ccc(O)cc2)C(=O)N[C@@H](Cc2ccc(O)cc2)C(=O)NCC(=O)N[C@@H]([C@@H](C)O)C(=O)N1)C(=O)N[C@@H](CC(=O)O)C(=O)NCc1ccc(CNC(=O)C(CNC(=O)C(CN(CCN(CC(=O)O)CC(=O)O)CC(=O)O)N(CC(=O)O)CC(=O)O)NC(=O)C(CN(CCN(CC(=O)O)CC(=O)O)CC(=O)O)N(CC(=O)O)CC(=O)O)cc1` (stereo partly shown) [Compound 5], the half-life [1] was 65 min.

In the case of `CC(C)C[C@H](NC(=O)[C@@H]1CSSC[C@H](NC(=O)[C@@H]2CCCN2C(=O)[C@H](CC(C)C)NC(=O)c2ccc(-c3ccccc3)cc2)C(=O)N[C@@H](CC(=O)O)C(=O)N[C@@H](Cc2ccc(O)cc2)C(=O)N[C@@H](Cc2ccc(O)cc2)C(=O)NCC(=O)N[C@@H]([C@@H](C)O)C(=O)N1)C(=O)N[C@@H](CC(=O)O)C(=O)NCCN(CCN(CCN)C(=O)C(CNC(=O)CN(CCN(CCN(CC(=O)O)CC(=O)O)CC(=O)O)CC(=O)O)NC(=O)CN(CCN(CCN(CC(=O)O)CC(=O)O)CC(=O)O)CC(=O)O)C(=O)C(CNC(=O)CN(CCN(CCN(CC(=O)O)CC(=O)O)CC(=O)O)CC(=O)O)NC(=O)CN(CCN(CCN(CC(=O)O)CC(=O)O)CC(=O)O)CC(=O)O` (stereo partly shown) [Structure 3], the half-life [1] is reported as 9 min.

`CC[C@H](C)[C@H](NC(=O)[C@H](Cc1c[nH]cn1)NC(=O)[C@@H]1CSSC[C@H](NC(=O)[C@H](Cc2c[nH]cn2)NC(=O)[C@H](Cc2ccccc2)NC(=O)[C@H](Cc2c[nH]c3ccccc23)NC(=S)Nc2ccc3c(c2)C(=O)OC32c3ccc(O)cc3Oc3cc(O)ccc32)C(=O)N2CCC[C@H]2C(=O)N[C@@H](Cc2ccc(O)cc2)C(=O)N[C@@H](CC(=O)O)C(=O)N[C@@H](CC(C)C)C(=O)N1)C(=O)N[C@@H](CC(C)C)C(N)=O` [Compound K] (HELM PEPTIDE1{[O=C1OC2(c3ccc(O)cc3Oc3cc(O)ccc32)c2ccc(NC(=S)[*:2])cc21].W.F.H.C.P.Y.D.L.C.H.I.L.[am]}$PEPTIDE1,PEPTIDE1,5:R3-10:R3$$$V2.0) showed a Kd (fibrin DD(E) fragment; [2]) of 0.06 µM.

Work on `CC[C@H](C)[C@H](NC(=O)[C@H](Cc1c[nH]cn1)NC(=O)[C@@H]1CSSC[C@H](NC(=O)[C@H](Cc2c[nH]cn2)NC(=O)[C@H](Cc2ccccc2)NC(=O)[C@H](Cc2c[nH]c3ccccc23)NC(=O)CCCCCNC(=S)Nc2ccc3c(c2)C(=O)OC32c3ccc(O)cc3Oc3cc(O)ccc32)C(=O)N2C[C@H](O)C[C@H]2C(=O)N[C@@H](Cc2ccc(O)c(I)c2)C(=O)N[C@@H](CC(=O)O)C(=O)N[C@@H](CC(C)C)C(=O)N1)C(N)=O` [D] ({FITC-Ahx}-WFHC[Hyp][Tyr(3-I)]DLCHI-NH2; disulfide 4-9) yielded a Kd (fibrin DD(E) fragment; [2]) of 0.061 µM.

`C=NOCC(=O)NCCN(CCN(CCNC(=O)CO/N=C/C(=O)N[C@@H](CC(C)C)C(=O)N1CCC[C@H]1C(=O)N[C@H]1CSSC[C@@H](C(=O)N[C@@H](Cc2ccc(-c3ccccc3)cc2)C(=O)N[C@@H](CC(=O)O)C(N)=O)NC(=O)[C@H]([C@@H](C)O)NC(=O)CNC(=O)[C@H](Cc2ccc(O)cc2)NC(=O)[C@H](Cc2ccc(O)cc2)NC(=O)[C@H](CC(=O)O)NC1=O)C(=O)C(CNC(=O)CN(CCN(CCN(CC(=O)O)CC(=O)O)CC(=O)O)CC(=O)O)NC(=O)CN(CCN(CCN(CC(=O)O)CC(=O)O)CC(=O)O)CC(=O)O)C(=O)C(CNC(=O)CN(CCN(CCN(CC(=O)O)CC(=O)O)CC(=O)O)CC(=O)O)NC(=O)CN(CCN(CCN(CC(=O)O)CC(=O)O)CC(=O)O)CC(=O)O` (stereo partly shown) [Structure 2] showed a half-life [1] of 10 min.

With `CC(C)C[C@H](NC(=O)[C@@H]1CSSC[C@H](NC(=O)[C@@H]2CCCN2C(=O)[C@@H](N)CC(C)C)C(=O)N[C@@H](CC(=O)O)C(=O)N[C@@H](Cc2ccc(O)cc2)C(=O)N[C@@H](Cc2ccc(O)cc2)C(=O)NCC(=O)N[C@@H](C(C)O)C(=O)N1)C(=O)N[C@@H](CC(=O)O)C(N)=O` (stereo partly shown) [Structure 1] the half-life at 100 µM [1] was < 2 min.

`CC[C@H](C)[C@H](NC(=O)[C@H](Cc1c[nH]cn1)NC(=O)[C@@H]1CSSC[C@H](NC(=O)[C@H](Cc2c[nH]cn2)NC(=O)[C@H](Cc2ccccc2)NC(=O)CNC(=O)CNC(=O)CCCCCNC(=S)Nc2ccc3c(c2)C(=O)OC32c3ccc(O)cc3Oc3cc(O)ccc32)C(=O)N2C[C@H](O)C[C@H]2C(=O)N[C@@H](Cc2ccc(O)c(I)c2)C(=O)N[C@@H](CC(=O)O)C(=O)N[C@@H](CC(C)C)C(=O)N1)C(N)=O` [E] ({FITC-Ahx}-GGFHC[Hyp][Tyr(3-I)]DLCHI-NH2; disulfide 5-10) gave a Kd (fibrin DD(E) fragment; [2]) of 0.09 µM.

Compound `CC[C@H](C)[C@H](NC(=O)[C@H](Cc1c[nH]cn1)NC(=O)[C@@H]1CSSC[C@H](NC(=O)[C@H](Cc2c[nH]cn2)NC(=O)[C@H](Cc2ccccc2)NC(=O)CNC(=O)CCCCCNC(=S)Nc2ccc3c(c2)C(=O)OC32c3ccc(O)cc3Oc3cc(O)ccc32)C(=O)N2C[C@H](O)C[C@H]2C(=O)N[C@@H](Cc2ccc(O)c(I)c2)C(=O)N[C@@H](CC(=O)O)C(=O)N[C@@H](CC(C)C)C(=O)N1)C(N)=O` [C] ({FITC-Ahx}-GFHC[Hyp][Tyr(3-I)]DLCHI-NH2; disulfide 4-9) has a Kd (fibrin DD(E) fragment; [2]) of 0.097 µM.

`CC[C@H](C)[C@H](NC(=O)[C@H](Cc1c[nH]c2ccccc12)NC(=O)[C@@H]1CSSC[C@H](NC(=O)[C@H](CCC(=O)O)NC(=O)[C@H](Cc2c[nH]c3ccccc23)NC(=O)[C@H](CCC(N)=O)NC(=S)Nc2ccc3c(c2)C(=O)OC32c3ccc(O)cc3Oc3cc(O)ccc32)C(=O)N2CCC[C@H]2C(=O)N[C@@H](Cc2ccc(O)cc2)C(=O)NCC(=O)N[C@@H](CC(C)C)C(=O)N1)C(=O)N[C@@H](CCC(N)=O)C(N)=O` [J] (HELM PEPTIDE1{[O=C1OC2(c3ccc(O)cc3Oc3cc(O)ccc32)c2ccc(NC(=S)[*:2])cc21].Q.W.E.C.P.Y.G.L.C.W.I.Q.[am]}$PEPTIDE1,PEPTIDE1,5:R3-10:R3$$$V2.0) gave a Kd (fibrin DD(E) fragment; [2]) of 0.055 µM and a Kd (fibrin DD(E) fragment; fluorophore derivatives of QWECPYGLCWIQ, no unit in Table 6, read-out: Kd) of 0.06 µM.

— patent publication US7927581B2, “Peptide-based multimeric targeted contrast agents” (Factor 1A, LLC, priority 2001, dated 2011)
